In article PMC11364775, “Ion occupancy of the selectivity filter controls opening of a cytoplasmic gate in the K2P channel TALK-2” (Nature Communications, 2024):

Target: T1, WT TALK-2 channels (Homo sapiens, UniProt Q96T54)
T1 sequence (Q96T54 1-332): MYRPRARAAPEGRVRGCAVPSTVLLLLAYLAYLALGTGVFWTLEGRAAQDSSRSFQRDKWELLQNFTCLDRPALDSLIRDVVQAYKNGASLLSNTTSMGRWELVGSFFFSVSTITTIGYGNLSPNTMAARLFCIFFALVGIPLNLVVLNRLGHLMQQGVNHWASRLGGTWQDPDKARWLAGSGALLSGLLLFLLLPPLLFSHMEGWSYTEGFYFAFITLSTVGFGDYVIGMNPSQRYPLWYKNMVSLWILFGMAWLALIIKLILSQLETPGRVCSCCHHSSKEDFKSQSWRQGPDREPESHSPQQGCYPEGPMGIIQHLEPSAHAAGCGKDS
Test: Conductance-voltage (G-V) curves from tail currents, V1/2 (intracellular Rb+)
Assay type: cell-based
Parameters: expressed in transfected cells; host or cells: Xenopus laevis oocytes (cRNA injection), excised inside-out patches
Conditions: for Normalized current: TALK-2 WT + 1 mM TPenA
Description: The voltage-dependent activation mechanism of the SF gate in K2P channels allows to estimate the electrical work (ΔG = zFΔV1/2) required for pore opening by fitting the G–V curve to a Boltzmann equation. […] The open state represents the situation of both gates being simultaneously open but voltage can only exert force on the SF gate that functions as voltage sensor. […] We further tested whether mutations that open the lower gate (L262A and L264A) would affect the extracellular pH sensitivity. […] We further explored this concept of allosteric coupling using the mutations identified in the functional alanine screen of TM2 and TM4. […]
Conductance-voltage (G–V) relationships were determined from tail currents recorded at a holding potential (VH) of −80 mV after 300 ms depolarizing steps as indicated in the respective figure legend. Data were analyzed with a single Boltzmann fit following Eq. 6:6 GV=Imax/1+e^V−V1/2/slope+Ibase where V1/2 represents the voltage of half-maximal activation, s is the slope factor and Imax and Ibase represent the upper and lower asymptotes. Under appropriate experimental conditions, you can use slope to calculate the valence (charge) of the ion moving across the channel. Slope equals R * T/ z * F where R is the universal gas constant, T is temperature in K, F is the Faraday constant, and z is the valence.

For `CCCCC[N+](CCCCC)(CCCCC)CCCCC` [TPenA, Tetra-pentyl-ammonium chloride], the “leftward shift of the G-V curve” value (1 mM TPenA, intracellular Rb+) was 46.1 ± 4.9 mV, the Normalized current (Voltage 0.000) was 0.197 and the Normalized current (Voltage 0.005) was 0.242. The Normalized current (Voltage 0.010) was 0.308, the Normalized current (Voltage 0.015) was 0.381 and the Normalized current (Voltage 0.020) was 0.454. The Normalized current (Voltage 0.025) was 0.532, the Normalized current (Voltage 0.030) was 0.607 and the Normalized current (Voltage 0.035) was 0.671. The Normalized current (Voltage 0.040) was 0.728, the Normalized current (Voltage 0.045) was 0.768 and the Normalized current (Voltage 0.050) was 0.808. It also gave a Normalized current (Voltage 0.055) of 0.838, a Normalized current (Voltage 0.060) of 0.865 and a Normalized current (Voltage 0.065) of 0.890. It also gave a Normalized current (Voltage 0.070) of 0.906, a Normalized current (Voltage 0.075) of 0.928 and a Normalized current (Voltage 0.080) of 0.937. For the same compound, the Normalized current (Voltage 0.085) was 0.948, the Normalized current (Voltage 0.090) was 0.958 and the Normalized current (Voltage 0.095) was 0.967. For the same compound, the Normalized current (Voltage 0.100) was 0.967, the Normalized current (Voltage 0.105) was 0.966 and the Normalized current (Voltage 0.110) was 0.976. It also gave a Normalized current (Voltage 0.115) of 0.977, a Normalized current (Voltage 0.120) of 0.974 and a Normalized current (Voltage 0.125) of 0.985. The Normalized current (Voltage 0.130) was 0.971, the Normalized current (Voltage 0.135) was 0.973 and the Normalized current (Voltage 0.140) was 0.960. The Normalized current (Voltage 0.145) was 0.967, the Normalized current (Voltage 0.150) was 0.968 and the Normalized current (Voltage 0.155) was 0.943. The Normalized current (Voltage 0.160) was 0.968, the Normalized current (Voltage -0.005) was 0.160 and the Normalized current (Voltage -0.010) was 0.136. The Normalized current (Voltage -0.015) was 0.121, the Normalized current (Voltage -0.020) was 0.109 and the Normalized current (Voltage -0.025) was 0.102. For the same compound, the Normalized current (Voltage -0.030) was 0.098, the Normalized current (Voltage -0.035) was 0.094 and the Normalized current (Voltage -0.040) was 0.089. It also gave a Normalized current (Voltage -0.045) of 0.087, a Normalized current (Voltage -0.050) of 0.085 and a Normalized current (Voltage -0.055) of 0.083. It also gave a Normalized current (Voltage -0.060) of 0.079, a Normalized current (Voltage -0.065) of 0.079 and a Normalized current (Voltage -0.070) of 0.079. For the same compound, the Normalized current (Voltage -0.075) was 0.077, the Normalized current (Voltage -0.080) was 0.077 and the Normalized current (Voltage -0.085) was 0.078. The Normalized current (Voltage -0.090) was 0.077, the Normalized current (Voltage -0.095) was 0.078 and the Normalized current (Voltage -0.100) was 0.076. The Normalized current (Voltage -0.105) was 0.077, the Normalized current (Voltage -0.110) was 0.079 and the Normalized current (Voltage -0.115) was 0.077. The Normalized current (Voltage -0.120) was 0.077 and the V1/2 (TALK-2 WT, 1 mM ligand) was 25.5 mV.
